# Data: patent US6727232B2, “Nucleoside peptide antibiotics of AA-896” (Wyeth Holdings Corporation, priority 2001, dated 2004)
# Where two headings read alike, the source gives them in different places.
# Assays:
# Test in all cases: Broth dilution MIC
# Format in all cases: cell-based
# E. coli GC 4560 = details: Escherichia coli, GC4560, 18 h, read-out: Antimicrobial Activity (MIC)
# Description: (§1) The in vitro antibacterial activity of Example 1 through Example 20 is determined against a spectrum of Gram-positive and Gram-negative bacteria by a standard broth dilution method. Serial dilution of the compounds are made in Mueller-Hinton broth and inoculated with a bacterial suspension. The lowest concentration of compound that inhibited the growth of a bacterial strain after 18 hours of incubation at 35° C. is reported as the minimal inhibitory concentration (MIC) for that strain.
# S. marcescens GC 4077 = details: Serratia marcescens, read-out: Antimicrobial Activity (MIC)
# Description: as §1
# S. aureus GC 1131 = details: Staphylococcus aureus, read-out: Antimicrobial Activity (MIC)
# Description: as §1
# E. coli GC 3226 = details: Escherichia coli, read-out: Antimicrobial Activity (MIC)
# Description: as §1
# E. coli GC 2203 = details: Escherichia coli, read-out: Antimicrobial Activity (MIC)
# Description: as §1
# E. coli GC 4559 = details: Escherichia coli, read-out: Antimicrobial Activity (MIC)
# Description: as §1
# CNS GC 4538 = details: read-out: Antimicrobial Activity (MIC)
# Description: as §1
# E. cloacae GC 3783 = details: Enterobacter cloacae, read-out: Antimicrobial Activity (MIC)
# Description: as §1
# S. aureus GC 2216 = details: Staphylococcus aureus, read-out: Antimicrobial Activity (MIC)
# Description: as §1
# CNS GC 4537 = details: read-out: Antimicrobial Activity (MIC)
# Description: as §1
# K. pneumoniae GC 4534 = details: Klebsiella pneumoniae, read-out: Antimicrobial Activity (MIC)
# Description: as §1
# P. rettgeri GC 4530 = details: Providencia rettgeri, read-out: Antimicrobial Activity (MIC)
# Description: as §1
# P. aeruginosa GC 2214 = details: Pseudomonas aeruginosa, read-out: Antimicrobial Activity (MIC)
# Description: as §1
# S. aureus GC 4536 = details: Staphylococcus aureus, read-out: Antimicrobial Activity (MIC)
# Description: as §1
# E. faecalis GC 4555 = details: Enterococcus faecalis, read-out: Antimicrobial Activity (MIC)
# Description: as §1
# CNS GC 4547 = details: read-out: Antimicrobial Activity (MIC)
# Description: as §1
# E. faecalis GC 842 = details: Enterococcus faecalis, read-out: Antimicrobial Activity (MIC)
# Description: as §1
# E. faecalis GC 2242 = details: Enterococcus faecalis, read-out: Antimicrobial Activity (MIC)
# Description: as §1
# P. aeruginosa GC 4532 = details: Pseudomonas aeruginosa, read-out: Antimicrobial Activity (MIC)
# Description: as §1
# M. morganii GC 4531 = details: Morganella morganii, read-out: Antimicrobial Activity (MIC)
# Description: as §1
# [1] = GC4077, S. marcescens GC 4077, Mueller-Hinton broth, 18 hours at 35° C.
# [2] = GC1131, S. aureus GC 1131, Mueller-Hinton broth, 18 hours at 35° C.
# [3] = GC3226, E. coli GC 3226, Mueller-Hinton broth, 18 hours at 35° C.
# [4] = GC2203, E. coli GC 2203, Mueller-Hinton broth, 18 hours at 35° C.
# [5] = GC4559, E. coli GC 4559, Mueller-Hinton broth, 18 hours at 35° C.
# [6] = CNS GC 4538, Mueller-Hinton broth, 18 hours at 35° C.
# [7] = GC3783, E. cloacae GC 3783, Mueller-Hinton broth, 18 hours at 35° C.
# [8] = GC2216, S. aureus GC 2216, Mueller-Hinton broth, 18 hours at 35° C.
# [9] = CNS GC 4537, Mueller-Hinton broth, 18 hours at 35° C.
# [10] = GC4534, K. pneumoniae GC 4534, Mueller-Hinton broth, 18 hours at 35° C.
# [11] = GC4530, P. rettgeri GC 4530, Mueller-Hinton broth, 18 hours at 35° C.
# [12] = GC2214, P. aeruginosa GC 2214, Mueller-Hinton broth, 18 hours at 35° C.
# [13] = GC4536, S. aureus GC 4536, Mueller-Hinton broth, 18 hours at 35° C.
# [14] = GC4555, E. faecalis GC 4555, Mueller-Hinton broth, 18 hours at 35° C.
# [15] = CNS GC 4547, Mueller-Hinton broth, 18 hours at 35° C.
# [16] = GC842, E. faecalis GC 842, Mueller-Hinton broth, 18 hours at 35° C.
# [17] = GC2242, E. faecalis GC 2242, Mueller-Hinton broth, 18 hours at 35° C.
# [18] = GC4532, P. aeruginosa GC 4532, Mueller-Hinton broth, 18 hours at 35° C.
# [19] = GC4531, M. morganii GC 4531, Mueller-Hinton broth, 18 hours at 35° C.
SMILES,MIC (E. coli GC 4560) [µg/mL],MIC (S. marcescens GC 4077; [1]) [µg/mL],MIC (S. aureus GC 1131; [2]) [µg/mL],MIC (E. coli GC 3226; [3]) [µg/mL],MIC (E. coli GC 2203; [4]) [µg/mL],MIC (E. coli GC 4559; [5]) [µg/mL],MIC (CNS GC 4538; [6]) [µg/mL],MIC (E. cloacae GC 3783; [7]) [µg/mL],MIC (S. aureus GC 2216; [8]) [µg/mL],MIC (CNS GC 4537; [9]) [µg/mL],MIC (K. pneumoniae GC 4534; [10]) [µg/mL],MIC (P. rettgeri GC 4530; [11]) [µg/mL],MIC (P. aeruginosa GC 2214; [12]) [µg/mL],MIC (S. aureus GC 4536; [13]) [µg/mL],MIC (E. faecalis GC 4555; [14]) [µg/mL],MIC (CNS GC 4547; [15]) [µg/mL],MIC (E. faecalis GC 842; [16]) [µg/mL],MIC (E. faecalis GC 2242; [17]) [µg/mL],MIC (P. aeruginosa GC 4532; [18]) [µg/mL],MIC (M. morganii GC 4531; [19]) [µg/mL],further results
"CCCCCCCCCCCCN1C(=O)C([C@@H](OC2O[C@H](CN)[C@H](O)[C@H]2OC)[C@H]2O[C@@H](n3ccc(=O)[nH]c3=O)[C@H](O)[C@@H]2O)N(CCCNC(=O)C(NC(=O)C(NC(=O)NC(C(=O)O)C(C)C)C2CCNC(=N)N2)C(O)C(C)C)C1=O (stereo partly drawn) [Example 5, 14-[5-((R)-{[(3R,4S,5R)-5-(Aminomethyl)-4-hydroxy-3-methoxytetrahydro-2-furanyl]oxy}{(2S,3S,4R,5R)-5-[2,4-dioxo-3,4-dihydro-1 (2H)-pyrimidinyl]-3,4-dihydroxytetrahydro-2-furanyl}methyl)-3-dodecyl-2,4-dioxo-1-imidazolidinyl]-9-(1-hydroxy-2-methylpropyl)-6-(2-iminohexahydro-4-pyrimidinyl)-2-isopropyl-4,7,10-trioxo-3,5,8,11-tetraazatetradecan-1-oic acid]",4,> 32,> 32,> 32,> 32,> 32,> 32,> 32,> 32,> 32,> 32,> 32,> 32,> 32,> 32,> 32,> 32,> 32,> 32,> 32,
"CO[C@H]1C(O[C@H](C(C(=O)O)N(CCCNC(=O)C(NC(=O)C(NC(=O)NC(C(=O)O)C(C)C)C2CCNC(=N)N2)C(O)C(C)C)Cc2ccccc2)[C@H]2O[C@@H](n3ccc(=O)[nH]c3=O)[C@H](O)[C@@H]2O)O[C@H](CN)[C@@H]1O (stereo partly drawn) [Example 6, 16-((R)-{[(3R,4S,5R)-5-(Aminomethyl)-4-hydroxy-3-methoxytetrahydro-2-furanyl]oxy}{(2S,3S,4R,5R)-5-[2,4-dioxo-3,4-dihydro-1 (2H)-pyrimidinyl]-3,4-dihydroxytetrahydro-2-furanyl}methyl)-15-benzyl-9-(1-hydroxy-2-methylpropyl)-6-(2-iminohexahydro-4-pyrimidinyl)-2-isopropyl-4,7,10-trioxo-3,5,8,11,15-pentaazaheptadecane-1,17-dioic Acid]",2,> 32,> 32,> 32,> 32,> 32,> 32,> 32,> 32,> 32,> 32,> 32,> 32,> 32,> 32,> 32,> 32,> 32,> 32,> 32,
"CCCCCCCCCCCCN(CCCNC(=O)C(NC(=O)C(NC(=O)NC(C(=O)O)C(C)C)C1CCNC(=N)N1)C(O)C(C)C)C(C(=O)O)[C@@H](OC1O[C@H](CN)[C@H](O)[C@H]1OC)[C@H]1O[C@@H](n2ccc(=O)[nH]c2=O)[C@H](O)[C@@H]1O (stereo partly drawn) [Example 7, 16-((R)-{[(3R,4S,5R)-5-(Aminomethyl)-4-hydroxy-3-methoxytetrahydro-2-furanyl]oxy}{(2S,3S,4R,5R)-5-[2,4-dioxo-3,4-dihydro-1 (2H)-pyrimidinyl]-3,4-dihydroxytetrahydro-2-furanyl}methyl)-15-dodecyl-9-(1-hydroxy-2-methylpropyl)-6-(2-iminohexahydro-4-pyrimidinyl)-2-isopropyl-4,7,10-trioxo-3,5,8,11,15-pentaazaheptadecane-1,17-dioic Acid]",16,> 32,> 32,> 32,> 32,> 32,> 32,> 32,> 32,> 32,> 32,> 32,> 32,> 32,> 32,> 32,> 32,> 32,> 32,> 32,
"CO[C@H]1C(O[C@H](C(C(=O)O)N(CCCCCCCCCCCCN2CCOCC2)CCCNC(=O)C(NC(=O)C(NC(=O)NC(C(=O)O)C(C)C)C2CCNC(=N)N2)C(O)C(C)C)[C@H]2O[C@@H](n3ccc(=O)[nH]c3=O)[C@H](O)[C@@H]2O)O[C@H](CN)[C@@H]1O (stereo partly drawn) [Example 8, 16-((R)-{[(3R,4S,5R)-5-(Aminomethyl)-4-hydroxy-3-methoxytetrahydro-2-furanyl]oxy}{(2S,3S,4R,5R)-5-[2,4-dioxo-3,4-dihydro-1 (2H)-pyrimidinyl]-3,4-dihydroxytetrahydro-2-furanyl}methyl)-9-(1-hydroxy-2-methylpropyl)-6-(2-iminohexahydro-4-pyrimidinyl)-2-isopropyl-15-[12-(4-morpholinyl)dodecyl]-4,7,10-trioxo-3,5,8,11,15-pentaazaheptadecane-1,17-dioic Acid]",> 32,,,,,,,,,,,,,,,,,,,,"MIC (S. marcescens GC 4077; GC4077, 18 h): > 32 µg/mL; MIC (S. aureus GC 1131; GC1131, 18 h): > 32 µg/mL; MIC (E. coli GC 3226; GC3226, 18 h): > 32 µg/mL; MIC (E. coli GC 2203; GC2203, 18 h): > 32 µg/mL; MIC (E. coli GC 4559; GC4559, 18 h): > 32 µg/mL; MIC (CNS GC 4538; 18 h): > 32 µg/mL; MIC (E. cloacae GC 3783; GC3783, 18 h): > 32 µg/mL; MIC (S. aureus GC 2216; GC2216, 18 h): > 32 µg/mL; MIC (CNS GC 4537; 18 h): > 32 µg/mL; MIC (K. pneumoniae GC 4534; GC4534, 18 h): > 32 µg/mL; MIC (P. rettgeri GC 4530; GC4530, 18 h): > 32 µg/mL; MIC (P. aeruginosa GC 2214; GC2214, 18 h): > 32 µg/mL; MIC (S. aureus GC 4536; GC4536, 18 h): > 32 µg/mL; MIC (E. faecalis GC 4555; GC4555, 18 h): > 32 µg/mL; MIC (CNS GC 4547; 18 h): > 32 µg/mL; MIC (E. faecalis GC 842; GC842, 18 h): > 32 µg/mL; MIC (E. faecalis GC 2242; GC2242, 18 h): > 32 µg/mL; MIC (P. aeruginosa GC 4532; GC4532, 18 h): > 32 µg/mL; MIC (M. morganii GC 4531; GC4531, 18 h): > 32 µg/mL"
